From patent publication US11629155B2, “Small molecule antagonist compound TAC5 series having toll-like receptor 3/7/8/9 inhibitory function” (AJOU UNIVERSITY INDUSTRY-ACADEMIC COOPERATION FOUNDATION, priority 2018, dated 2023)

Tests used:
[1] = system: C57BL/6 mice, IMQ-induced psoriasis; assay: IMQ-induced psoriasis mouse model; assay type: in vivo; conditions: FIG. 5F
Protocol: The therapeutic efficacy of TAC5-a was evaluated in a psoriasis mouse model and a SLE mouse model. Psoriasis was induced in 6-7 week old C57BL/6 mice by topically applying 42 mg of IMQ cream (5%) to the shaved back skin of the mice for 6 consecutive days (FIG. 5A). TAC5-a was injected daily at doses of 50, 100 and 200 nmol/g and the effect thereof on severity was analyzed.
Histological analysis and immunochemical staining were performed on skin samples of mouse dorsal lesions. The sample was fixed with 4% paraformaldehyde solution, then embedded in paraffin and cut to 7 μm on a glass slide. The sections were stained with hematoxylin and eosin (H&E) and the thickness of the dermis and epidermis were measured. The thickness of skin was measured with a Leica DMi8 fluorescence microscope using a Leica LAS X Hardware Configurator (Leica Microsystems GmbH, Wetzlar, Germany). IMQ-mediated skin inflammation was evaluated by immunohistochemistry (IHC) using a primary antibody that recognizes CD68 (ab31630, 1:200 dilution) as a macrophage marker. […] The skin was stained with hematoxylin and eosin (H&E) in order to evaluate the thickness of the epidermis (yellow arrow) and dermis (green arrow) in IMQ-induced psoriasis mice and thereby to observe the histopathological changes of skin lesions in each group (FIG. 5G) Immunohistochemical analysis of skin lesions in each group was performed using a primary antibody that recognizes CD68.

TLR7/8 = assay: TLR7/8-mediated IL-6 expression in THP-1 cells; assay type: cell-based, human; conditions: FIG. 4C
Protocol: RAW264.7 cells (ATCC, Manassas, Va., USA), which are mouse macrophages, were cultured in low-glucose DMEM (Thermo Fisher Scientific Inc.) supplemented with 10% FBS, 100 IU/ml penicillin and 100 μg/ml streptomycin in a culture system. Human monocyte THP1 cells were cultured in RPMI 1640 (Thermo Fisher Scientific Inc.) supplemented with 10% FBS, 100 IU/ml penicillin and 100 μg/ml streptomycin and then differentiation thereof into macrophages was induced using 10 nM phorbol 12-myristate 13-acetate (PMA) (Sigma-Aldrich Co. LLC.) for 24 hours. CL075, R848, CpG-ODN and Poly(I:C) were purchased from InvivoGen (San Diego, Calif., USA), and LPS was purchased from Sigma-Aldrich Co. (St. Louis, Mo., USA).
Cytotoxicity in RAW 264.7 cells was tested by treatment with these compounds at a concentration of 12.5 to 50 μM. […] The inhibitory effect of TAC5-a on TLR-mediated signaling was confirmed by measuring TNF-α secretion through ELISA in THP1-derived macrophages. […] In addition, in order to evaluate the antagonistic effect of TAC5-a on endosomal TLR activation, cells were cultured along with this compound in the presence of R848 (TLR7/8) or CL075 (TLR7/8), imiquimod (IMQ; TLR7), TL8 (TLR8), poly(I:C) (TLR3) or CpG ODN (TLR9) (FIGS. 4E, 4F and 4G).

RAW 264.7 cells = assay: MTT assay, cytotoxicity in RAW 264.7 cells; conditions: FIG. 4B
Protocol: RAW264.7 cells (ATCC, Manassas, Va., USA), which are mouse macrophages, were cultured in low-glucose DMEM (Thermo Fisher Scientific Inc.) supplemented with 10% FBS, 100 IU/ml penicillin and 100 μg/ml streptomycin in a culture system.
Cytotoxicity in RAW 264.7 cells was tested by treatment with these compounds at a concentration of 12.5 to 50 μM.

CN(Cc1cnc2nc(N)nc(N)c2n1)c1ccc(C(=O)N[C@@H](CCC(=O)O)C(=O)O)cc1 [MTX, methotrexate, reference compound] was tested, and the “thickness of the epidermis and the dermis (H&E)” value [1] was “therapeutic effects similar to those of the treatment group were observed”.
In the case of c1ccc(COc2cccnc2Nc2ccccc2)cc1 [TAC5-c, 3-(benzyloxy)-N-phenylpyridin-2-amine], the “TLR7/8-mediated IL-6 expression” value (TLR7/8) is reported as “inhibited” and the “cytotoxicity at 50 μM” value (RAW 264.7 cells) is reported as “slight cytotoxicity”.
In the case of CCOCC(Oc1cccnc1N)c1ccccc1 (centres unmarked) [TAC5-d, 3-(2-ethoxy-1-phenylethoxy)pyridine-2-amine], the “TLR7/8-mediated IL-6 expression” value (TLR7/8) is reported as “inhibited”.
With NCCOCC(Oc1cccnc1N)c1ccccc1 (centres unmarked) [TAC5-e, 3-(2-(2-aminoethoxy)-1-phenylethoxy)pyridine-2-amine] the “TLR7/8-mediated IL-6 expression” value (TLR7/8) was “inhibited”.
